Data on 17 molecules can be found in US20200071316A1, “ACTIVATORS OF THE RETINOIC ACID INDUCIBLE GENE "RIG-I" PATHWAY AND METHODS OF USE THEREOF” (Kineta Immuno-Oncology LLC, priority 2018, published 2020).

Marks after values point to notes of the source that are not given here. Where only a bound is given, the exact number is not on record here.

Assay [1] relates to CXCL10 secretion by CT26 cells. In words: RIG-I dependent CXCL10 secretion by CT26 colon carcinoma cells (ELISA). Type of assay: cell-based, murine. Conditions: 24 h. The gist of the method:
(§1)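 Murine CT26 colon carcinoma cells, and CRISPR-generated RIG-I knockout CT26 cells, were seeded at 1×10^4 cells/well and grown 24 h at 37 °C, 5% CO2, then treated with compounds at 5 to 20 μM. CXCL10 in supernatants was measured by ELISA 24 h after stimulation.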

Assay [2] relates to RIG-I deficient CT26 RIG-1−/− cells. The experiment in a line: CXCL10 secretion in RIG-I deficient CT26 RIG-1−/− cells (ELISA). It counts as cell-based, murine. Conditions: 24 h. The essentials: as §1
The subject of assay [3] is THP1-Lucia ISG IRF3 −/− cells. The experiment in a line: IRF3-deficient THP1-Lucia ISG IRF3 −/− reporter assay (counter-screen). Type of assay: cell-based. To be noted: Homo sapiens, 18 h after stimulation, read-out: THP1 ISG IRF3 −/−: fold increase of luciferase activity over background; for fold induction at 5 µM: 5 μM compound (**); for fold induction at 10 µM: 10 μM compound. The gist of the method:
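PMA-differentiated (100 ng/ml) reporter cells carrying ISRE/ISG54 minimal promoter-driven secreted luciferase were stimulated with compounds at 5–20 μM (mostly 10 μM). Luciferase measured 18 h later and expressed as fold increase over untreated background, binned from "−" (<2.4-fold) to "+++++" (≥40-fold).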

Assay [4] relates to IRF3 signaling pathway (IRF-inducible ISG54 promotor) in THP1-Lucia ISG cells. In words: THP1-Lucia ISG reporter assay: induction of IRF3-dependent luciferase activity. To be noted: Homo sapiens, PMA-differentiated cells, 18 h after stimulation, read-out: THP1 ISG: fold increase of IRF3-dependent luciferase activity over background; for fold induction at 5 µM: 5 μM compound (**); for fold induction at 10 µM: 10 μM compound. It counts as cell-based. The essentials:
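PMA-differentiated (100 ng/ml) reporter cells, parental and IRF3−/−, stimulated with compounds at 5–20 μM (mostly 10 μM). Secreted luciferase measured 18 h later. Scored as fold increase over untreated background in bands from "−" (<2.4-fold) to "+++++" (≥40-fold).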

For `NS(=O)(=O)c1ccc2nc(NC(=O)c3cc4ccccc4cc3OCCCCN3CCOCC3)sc2c1` [Example 32, 3-[4-(morpholin-4-yl)butoxy]-N-(6-sulfamoyl-1,3-benzothiazol-2-yl)naphthalene-2-carboxamide], the “CXCL10 secretion by CT26 cells” value in assay [1] (10 μM compound) is reported as “++++ (“++++” indicates 800 to 1599 pg/mL)”. The “CXCL10 secretion by CT26 RIG-I −/− cells” value in assay [2] (10 μM compound) is reported as “− (“−” indicates less than 100 pg/mL)”. The fold induction at 5 µM in assay [3] is less than 2.4; in assay [4], 5 to 9.9.

Consider `O=C(Nc1nc2cccc(NC(=S)Nc3ccccc3)c2s1)c1cc2ccccc2cc1OCCCCN1CCOCC1` [Example 33, 3-[4-(morpholin-4-yl)butoxy]-N-{7-[(phenylcarbamothioyl)amino]-1,3-benzothiazol-2-yl}naphthalene-2-carboxamide], for which, in assay [1] (5 μM compound (**)), the “CXCL10 secretion by CT26 cells” value was “++** (“++” indicates 200-399 pg/mL)”. Further, the “CXCL10 secretion by CT26 RIG-I −/− cells” value in assay [2] (5 μM compound (**)) is on record as “−** (“−” indicates less than 100 pg/mL)”. Also, the values for the fold induction at 10 µM in assay [3] and in assay [4] were less than 2.4 and 2.4 to 4.9, respectively.

Regarding `O=C(Nc1nc2ccc(OCC(F)(F)F)cc2s1)c1cc2ccccc2cc1OCCN1CCOCC1` [Example 54, 3-[2-(morpholin-4-yl)ethoxy]-N-[6-(2,2,2-trifluoroethoxy)-1,3-benzothiazol-2-yl]naphthalene-2-carboxamide], the “CXCL10 secretion by CT26 cells” value in assay [1] (10 μM compound) is “− (“−” indicates less than 100 pg/mL)”. Also, in assay [2] (10 μM compound), the “CXCL10 secretion by CT26 RIG-I −/− cells” value is “− (“−” indicates less than 100 pg/mL)”. For the same molecule, the fold induction at 10 µM was less than 2.4 in assay [3] and 2.4 to 4.9 in assay [4].

As for `O=C(Nc1nc2ccc(-c3nc4ccccc4[nH]3)cc2s1)c1ccc2ccccc2c1` [Example 10, N-[6-(1H-1,3-benzodiazol-2-yl)-1,3-benzothiazol-2-yl]naphthalene-2-carboxamide], the “CXCL10 secretion by CT26 cells” value in assay [1] (10 μM compound) is on record as “+++ (“+++” indicates 400-799 pg/mL)”. The “CXCL10 secretion by CT26 RIG-I −/− cells” value in assay [2] (10 μM compound) is “− (“−” indicates less than 100 pg/mL)”. Further, the results for the fold induction at 10 µM in assay [3] and in assay [4] were less than 2.4 and 5 to 9.9, respectively.

`CS(=O)(=O)c1ccc2nc(NC(=O)c3cc4ccccc4cc3OCCN3CCOCC3)sc2c1` [Example 44, N-(6-methanesulfonyl-1,3-benzothiazol-2-yl)-3-[2-(morpholin-4-yl)ethoxy]naphthalene-2-carboxamide]: in assay [1] (5 μM compound (**)), the “CXCL10 secretion by CT26 cells” value is on record as “++** (“++” indicates 200-399 pg/mL)”. In addition, the “CXCL10 secretion by CT26 RIG-I −/− cells” value in assay [2] (5 μM compound (**)) is on record as “−** (“−” indicates less than 100 pg/mL)”. For the same molecule, the fold induction at 10 µM in assay [3] and in assay [4] was less than 2.4 throughout.

Regarding `O=C(Nc1nc2ccc(S(=O)(=O)N3CCC3)cc2s1)c1ccc(-c2ccccc2)cc1OCCCCN1CCOCC1` [Example 59], in assay [1] (10 μM compound), the “CXCL10 secretion by CT26 cells” value was “+++ (“+++” indicates 400-799 pg/mL)”. In addition, the “CXCL10 secretion by CT26 RIG-I −/− cells” value in assay [2] (10 μM compound) is reported as “− (“−” indicates less than 100 pg/mL)”. The fold induction at 10 µM in assay [3] is less than 2.4; in assay [4], 10 to 19.

For `O=C(Nc1nc2ccc(C(=O)Nc3c(Cl)cccc3Cl)cc2s1)c1ccc2ncccc2c1` [Example 15, N-{6-[(2,6-dichlorophenyl)carbamoyl]-1,3-benzothiazol-2-yl}quinoline-6-carboxamide], in assay [1] (10 μM compound), the “CXCL10 secretion by CT26 cells” value is reported as “++++ (“++++” indicates 800 to 1599 pg/mL)”. Besides, the “CXCL10 secretion by CT26 RIG-I −/− cells” value in assay [2] (10 μM compound) is reported as “− (“−” indicates less than 100 pg/mL)”. For the same molecule, the figures for the fold induction at 10 µM in assay [3] and in assay [4] were less than 2.4 and 20 to 39, respectively.

Take `COC(=O)c1ccc2nc(NC(=O)c3cc4ccccc4cc3OCCCCN3CCOCC3)sc2c1` [Example 66, methyl 2-{3-[4-(morpholin-4-yl)butoxy]naphthalene-2-amido}-1,3-benzothiazole-6-carboxylate]: the “CXCL10 secretion by CT26 cells” value in assay [1] (5 μM compound (**)) is listed as “++** (“++” indicates 200-399 pg/mL)”. Besides, in assay [2] (5 μM compound (**)), the “CXCL10 secretion by CT26 RIG-I −/− cells” value was “−** (“−” indicates less than 100 pg/mL)”. The fold induction at 5 µM in assay [3] was less than 2.4; in assay [4], 5 to 9.9.

`O=C(Nc1cc2ccc(S(=O)(=O)N3CCCC3)cc2s1)c1cc2c(cc1OCCN1CCOCC1)OCO2` [Example 75]: the “CXCL10 secretion by CT26 cells” value in assay [1] (10 μM compound) is on record as “++ (“++” indicates 200-399 pg/mL)”. The “CXCL10 secretion by CT26 RIG-I −/− cells” value in assay [2] (10 μM compound) is listed as “− (“−” indicates less than 100 pg/mL)”. Also, the fold induction at 10 µM was less than 2.4 in assay [3] and 5 to 9.9 in assay [4].

With `O=C(Nc1cc2ccc(S(=O)(=O)N3CCCC3)cc2s1)c1ccc(-c2ccccc2)cc1OCCN1CCOCC1` [Example 71, 3-[2-(morpholin-4-yl)ethoxy]-N-[6-(pyrrolidine-1-sulfonyl)-1-benzothiophen-2-yl]-[1,1′-biphenyl]-4-carboxamide], the “CXCL10 secretion by CT26 cells” value in assay [1] (10 μM compound) is “− (“−” indicates less than 100 pg/mL)”. Besides, the “CXCL10 secretion by CT26 RIG-I −/− cells” value in assay [2] (10 μM compound) was “− (“−” indicates less than 100 pg/mL)”. In addition, the fold induction at 10 µM in assay [3] and in assay [4] was less than 2.4 each time.

As for `N#Cc1ccc2nc(NC(=O)c3cc4ccccc4cc3OCCCCN3CCOCC3)sc2c1` [Example 25, N-(6-cyano-1,3-benzothiazol-2-yl)-3-[4-(morpholin-4-yl)butoxy]naphthalene-2-carboxamide], the “CXCL10 secretion by CT26 cells” value in assay [1] (20 μM compound (*)) is “+* (“+” indicates 100-199 pg/mL)”. In addition, the “CXCL10 secretion by CT26 RIG-I −/− cells” value in assay [2] (20 μM compound (*)) is given as “−* (“−” indicates less than 100 pg/mL)”. Besides, the fold induction at 5 µM in assay [3] was less than 2.4. Besides, the fold induction at 20 µM in assay [4] (20 μM compound (*)) fell in the range of 2.4 to 4.9.

Consider `Cn1c(C(=O)Nc2nc3ccc(S(=O)(=O)N4CCC4)cc3s2)cc2ccccc21` [Example 51, N-[6-(azetidine-1-sulfonyl)-1,3-benzothiazol-2-yl]-1-methyl-1H-indole-2-carboxamide], for which, in assay [1] (10 μM compound), the “CXCL10 secretion by CT26 cells” value is “+ (“+” indicates 100-199 pg/mL)”. Besides, in assay [2] (10 μM compound), the “CXCL10 secretion by CT26 RIG-I −/− cells” value was “− (“−” indicates less than 100 pg/mL)”. Moreover, the fold induction at 10 µM in assay [3] was less than 2.4; in assay [4], 2.4 to 4.9.

Turning to `O=C(Nc1cc2ccc(S(=O)(=O)N3CCCC3)cc2s1)c1cc2ccsc2cc1OCCN1CCOCC1` [Example 76, 6-[2-(morpholin-4-yl)ethoxy]-N-[6-(pyrrolidine-1-sulfonyl)-1-benzothiophen-2-yl]-1-benzothiophene-5-carboxamide], the “CXCL10 secretion by CT26 cells” value in assay [1] (10 μM compound) was “++++ (“++++” indicates 800 to 1599 pg/mL)”. In assay [2] (10 μM compound), the “CXCL10 secretion by CT26 RIG-I −/− cells” value is given as “− (“−” indicates less than 100 pg/mL)”. In addition, the fold induction at 10 µM in assay [3] is less than 2.4; in assay [4], 20 to 39.

Regarding `O=C(Nc1cc2ccc(S(=O)(=O)N3CCCC3)cc2s1)c1cc2ccccc2cc1OCCN1CCOCC1` [Example 74, 3-[2-(morpholin-4-yl)ethoxy]-N-[6-(pyrrolidine-1-sulfonyl)-1-benzothiophen-2-yl]naphthalene-2-carboxamide], the “CXCL10 secretion by CT26 cells” value in assay [1] (10 μM compound) is listed as “+++ (“+++” indicates 400-799 pg/mL)”. The “CXCL10 secretion by CT26 RIG-I −/− cells” value in assay [2] (10 μM compound) is recorded as “− (“−” indicates less than 100 pg/mL)”. Moreover, the fold induction at 10 µM in assay [3] is less than 2.4; in assay [4] it was 10 to 19.

Turning to `O=C(Nc1nc2ccc(S(=O)(=O)N3CC4(COC4)C3)cc2s1)c1cc2ccccc2cc1OCCCCN1CCOCC1` [Example 55, 3-[4-(morpholin-4-yl)butoxy]-N-(6-{2-oxa-6-azaspiro[3.3]heptane-6-sulfonyl}-1,3-benzothiazol-2-yl)naphthalene-2-carboxamide], the “CXCL10 secretion by CT26 cells” value in assay [1] (10 μM compound) is recorded as “++ (“++” indicates 200-399 pg/mL)”. For the same molecule, in assay [2] (10 μM compound), the “CXCL10 secretion by CT26 RIG-I −/− cells” value is “− (“−” indicates less than 100 pg/mL)”. Also, the results for the fold induction at 10 µM in assay [3] and in assay [4] were less than 2.4 and 2.4 to 4.9, respectively.

With `O=C(Nc1nc2ccc(S(=O)(=O)N3CCCC3)cc2s1)c1cc2ccsc2cc1OCCCCN1CCOCC1` [Example 42, 6-[4-(morpholin-4-yl)butoxy]-N-[6-(pyrrolidine-1-sulfonyl)-1,3-benzothiazol-2-yl]-1-benzothiophene-5-carboxamide], the “CXCL10 secretion by CT26 cells” value in assay [1] (10 μM compound) is reported as “++++ (“++++” indicates 800 to 1599 pg/mL)”. For the same molecule, in assay [2] (10 μM compound), the “CXCL10 secretion by CT26 RIG-I −/− cells” value is recorded as “− (“−” indicates less than 100 pg/mL)”. Moreover, the fold induction at 10 µM is less than 2.4 in assay [3] and 5 to 9.9 in assay [4].

For `COC(=O)c1ccc2nc(NC(=O)c3cc4ccccc4cc3OCCN3CCOCC3)sc2c1` [Example 69, methyl 2-{3-[2-(morpholin-4-yl)ethoxy]naphthalene-2-amido}-1,3-benzothiazole-6-carboxylate], the “CXCL10 secretion by CT26 cells” value in assay [1] (5 μM compound (**)) is “++** (“++” indicates 200-399 pg/mL)”. The “CXCL10 secretion by CT26 RIG-I −/− cells” value in assay [2] (5 μM compound (**)) is given as “−** (“−” indicates less than 100 pg/mL)”. In addition, the fold induction at 5 µM is less than 2.4 in assay [3] and 5 to 9.9 in assay [4].
